These results are taken from US20060111324A1, “(+)-Ttrans-isomers of (1-phosphonomethoxy-2-alkylcyclopropyl)methyl nucleoside derivatives, process for the preparation of stereoisomers thereof, and use of antiviral agents thereof” (LG Life Sciences, priority 2002, published 2006).

The subject of one series is Hepatitis B Virus (HBV). Description: Inhibition of hepatitis B virus replication in HepG2.2.15 cells, quantitative PCR of culture medium. In kind it is cell-based. The conditions noted are these: for pharmaceutical activity as an antiviral agent (in words): comparison among the compounds of Table 2.
A short description of series [1]: Determination of cytotoxicity (MTT) in HepG2.2.15 cells. The note with it: human.
Series [2] relates to HepG2.2.15 cell.
Series [3] has as its system HepG2.2.15 cell. Description: Determination of cytotoxicity (MTT) in HepG2.2.15 cells. The note with it: read-out: CC50 (μM) in HepG2.2.15; MTT, 10th day of drug treatment.
In another series the test system is HBV. Briefly: Pharmacological test on HBV transgenic mouse (serum HBV DNA by PCR). In kind it is in vivo. The note with it: for Result: number of mice showing pharmacological effect / number of total mice: effect = blood does not contain HBV DNA.
Setting [4] is: Hepatitis B virus, 240 h, HepG2.2.15 cells, 10 days drug treatment, HBV DNA in medium by PCR.

Like-named read-outs stand apart in the source and are kept apart here.

One may read the EC50 as the concentration giving half of the maximal effect. High values mean weaker potency, low ones greater potency. As a reminder, the CC50 is the concentration at which the toxic effect on the cells reaches its halfway point.

`C[C@@H]1C[C@]1(Cn1cnc2c(Sc3ccc([N+](=O)[O-])cc3)nc(N)nc21)OCP(=O)(O)O` (relative stereo) [Compound 44, [{(+)-cis-1-({2-amino-6-[(4-nitrophenyl)sulfanyl]-9H-purine-9-yl}methyl)-2-methylcyclopropyl}oxy]methylphosphonic acid] displayed an EC50 with Hepatitis B Virus (HBV) (setting [4]) of more than 40 µM. In addition, the CC50 at 10 days in series [1] was more than 1000 µM.
Consider “({(±)-trans-1-[(2-amino-6-hydroxy-9H-purine-9-yl)methyl]-2-propylcyclopropyl}oxy)methylphosphonic acid [Compound 40]”, for which the EC50 in the series with Hepatitis B Virus (HBV) was determined as 1.2 µM. Moreover, the cytotoxic concentration (CC50) in the series with HepG2.2.15 cell [2] was more than 1000 µM.
In the series on Hepatitis B Virus (HBV) (setting [4]), `CC[C@H]1C[C@]1(Cn1cnc2c(O)nc(N)nc21)OCP(=O)(O)O` [Compound 12, ({(1S,2S)-1-[(2-amino-6-hydroxy-9H-purine-9-yl)methyl]-2-ethylcyclopropyl}oxy)methylphosphonic acid] registered an EC50 of 0.03 µM. Moreover, the “pharmaceutical activity as an antiviral agent (in words)” value with Hepatitis B Virus (HBV) is given as “most excellent pharmaceutical activity”. In addition, the 50% cytotoxic concentration (CC50) at 10 days in series [1] is more than 1000 µM.
In the series with Hepatitis B Virus (HBV), “[{(±)-trans-1-({2-amino-6-[(4-methoxyphenyl)sulfanyl]-9H-purine-9-yl}methyl)-2-ethylcyclopropyl }oxy]methylphosphonic acid [Compound 43]” came in with an EC50 of more than 0.2 µM. The half-maximal cytotoxic concentration (CC50) with HepG2.2.15 cell [2] was more than 1000 µM.
`CC1CC1(Cn1cnc2c(N)ncnc21)OCP(=O)(O)O` (stereo not drawn) [Compound 45, ({[(+)-cis-[1-(6-amino-9H-purine-9-yl)methyl]-2-methylcyclopropyl}oxylmethylphosphonic acid] displayed a 50% effective concentration (EC50) in the series with Hepatitis B Virus (HBV) (setting [4]) of more than 40 µM. In addition, in series [1], the half-maximal cytotoxic concentration (CC50) at 10 days was more than 1000 µM.
On to “({(±)-trans-1-[(2-amino-9H-purine-9-yl)methyl]-2-propylcyclopropyl}oxy)methylphosphonic acid [Compound 39]”, for which the half-maximal effective concentration (EC50) in the series on Hepatitis B Virus (HBV) was more than 40 µM. In the series on HepG2.2.15 cell [2], this molecule came in with a half-maximal cytotoxic concentration (CC50) of more than 1000 µM.
For `CCC1CC1(Cn1cnc2c(O)nc(N)nc21)OCP(=O)(O)O` (single isomer, unassigned) [Compound 37, ({(−)-trans-1-1(2-amino-6-hydroxy-9H-purine-9-yl)methyl]-2-ethylcyclopropyl}oxy)methylphosphonic acid], the concentration giving a half-maximal response (EC50) with Hepatitis B Virus (HBV) (setting [4]) was more than 40 µM. In addition, the CC50 at 10 days in series [1] was more than 1000 µM.
For the molecule `C[C@@H]1C[C@]1(Cn1cnc2c(O)nc(N)nc21)OCP(=O)(O)O` (single isomer, unassigned) [Compound 38, ({(+)-cis-1-[(2-amino-6-hydroxy-9H-purine-9-yl)methyl]-2-methylcyclopropyl}oxy)methylphosphonic acid], the half-maximal effective concentration (EC50) with Hepatitis B Virus (HBV) (setting [4]) was more than 10 µM. Moreover, in series [1], the half-maximal cytotoxic concentration (CC50) at 10 days is more than 1000 µM.
Turning to `C[C@H]1C[C@]1(Cn1cnc2c(O)nc(N)nc21)OCP(=O)(O)O` [Compound 1, (((1S,2S)-1-[(2-amino-6-hydroxy-9H-purine-9-yl)methyl]-2-methylcyclopropyl}oxy)methylphosphonic acid], in the series on Hepatitis B Virus (HBV) (setting [4]), the EC50 amounted to 0.03 µM. Moreover, in the series on Hepatitis B Virus (HBV), the “pharmaceutical activity as an antiviral agent (in words)” value is listed as “most excellent pharmaceutical activity”. In series [1], this molecule gave a half-maximal cytotoxic concentration (CC50) at 10 days of more than 1000 µM.
For `CCC1CC1(Cn1cnc2cnc(N)nc21)OCP(=O)(O)O` [Compound 13, ({(1S,^2S)-1-[(2-amino-9H-purine-9-yl)methyl]-2-ethylcyclopropyl}oxy)methylphosphonic acid], the EC50 with Hepatitis B Virus (HBV) (setting [4]) is more than 10 µM. Moreover, in series [1], the cytotoxic concentration (CC50) at 10 days was more than 1000 µM.
Turning to `CC1CC1(Cn1cnc2c(O)nc(N)nc21)OCP(=O)(O)O` (single isomer, unassigned) [Compound 36, {(−)-trans-1-[(2-amino-6-hydroxy-9H-purine-9-yl)methyl]-2-methylcyclopropyl}oxy)methylphosphonic acid], in the series on Hepatitis B Virus (HBV) (HepG2.2.15 cells, 10 days drug treatment, HBV DNA in medium by PCR), the EC50 was more than 10 µM. Further, the 50% cytotoxic concentration (CC50) with HepG2.2.15 cell [3] is more than 1000 µM.
As for `COc1ccc(Sc2nc(N)nc3c2ncn3CC2(OCP(=O)(OCOC(=O)C(C)(C)C)OCOC(=O)C(C)(C)C)CC2C)cc1` [Compound 8, (1S,2S)-3-{[(1-{[2-amino-6-(4-methoxyphenylthio)-9H-purine-9-yl]methyl}-2-methylcyclopropyl)oxy]methyl}-8,8-dimethyl-3,7-dioxo-2,4,6-trioxa-3λ^5-phospanon-1-yl-pivalate], the “Result: number of mice showing pharmacological effect / number of total mice” value with HBV (oral, 1 mg/kg/day) is on record as 2/5.
On the same count and under the same terms, then `CC1CC1(Cn1cnc2cnc(N)nc21)OCP(=O)(OCOC(=O)C(C)(C)C)OCOC(=O)C(C)(C)C` [Compound 6, (1S,2S)-3-[({1-[(2-amino-9H-purine-9-yl)methyl]-2-methylcyclopropyl}oxy)methyl]-8,8-dimethyl-3,7-dioxo-2,4,6-trioxa-3λ^5-phosphanon-1-yl-pivalate], with 5/5.
`C[C@H]1C[C@]1(Cn1cnc2cnc(N)nc21)OCP(=O)(O)O` [Compound 2, ({(1S,2S)-1-[(2-amino-9H-purine-9-yl)methyl]-2-methylcyclopropyl}oxy)methylphosphonic acid] came in with a concentration giving a half-maximal response (EC50) in the series on Hepatitis B Virus (HBV) (setting [4]) of 1 µM. For the same molecule, the “Result: number of mice showing pharmacological effect / number of total mice” value in the series with HBV (subcutaneous, 10 mg/kg/day) is reported as 4/4. The same molecule gave a CC50 at 10 days in series [1] of more than 1000 µM.
In the series with Hepatitis B Virus (HBV), “({(±)-trans-1-[(6-amino-9H-purine-9-yl)methyl]-2-propylcyclopropyl}oxy)methylphosphonic acid [Compound 41]” showed a 50% effective concentration (EC50) of more than 30 µM. For the same molecule, in the series on HepG2.2.15 cell [2], the CC50 was more than 1000 µM.
As to `CC(C)OC(=O)OCOP(=O)(COC1(Cn2cnc3cnc(N)nc32)CC1C)OCOC(=O)OC(C)C` [Compound 7, (1S,2S)-bis {[(isopropoxycarbonyl)oxy]methyl}({1-[(2-amino-9H-purine-9-yl)methyl]-2-methylcyclopropyl}oxy)methylphosphonate], the “pharmacological effect (in words)” value in the series on HBV (HBV transgenic mice, orally administrated at 1 mpk or less) is recorded as “very excellent pharmacological effect”. For the same molecule, the “Result: number of mice showing pharmacological effect / number of total mice” value in the series on HBV (oral, 1 mg/kg/day) is recorded as 5/5.
